# Legend:
# [1] = tested on: CU-ACC1; assay: ExcessHSA synergy score with TAK-243; higher = less synergy (negative = synergistic); settings: combined with: TAK-243 (MLN-7243) matrix, 9-point 1:2 dilution
# Method: (§1)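 Each drug was tested at 9 points with 1:2 dilution; viability was read by CellTiter-Glo as in the single-agent screen. Synergy is scored as ExcessHSA (sum of excess over highest single agent; negative = synergy) and the Beta interaction parameter (<1 synergy).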
# [2] = tested on: NCI-H295R; assay: as above; settings: combined with: TAK-243 (MLN-7243) matrix, 9-point 1:2 dilution
# Method: as §1
# [3] = tested on: CU-ACC1; assay: AC50 viability; higher = less potent; settings: 48 h
# Method in brief: (§2)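 Cells from three adrenocortical carcinoma lines were seeded at 500–1,000 cells/well in 5 µL medium in 1,536-well plates. Each library compound was added as 23 nL at 11 concentrations, and after 48 h CellTiter-Glo was added for 15 minutes at room temperature before reading luminescence. Plate-wise normalisation to vehicle and empty-well controls preceded curve fitting. AC50 and area under the curve were calculated only for inhibitory or non-responding curve classes.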
# [4] = tested on: CU-ACC2; assay: AC50 viability; higher = less potent; settings: 48 h
# Method in brief: as §2
# [5] = tested on: NCI-H295R; assay: AC50 viability; higher = less potent; settings: 48 h
# Method in brief: as §2
# [6] = tested on: CU-ACC1; assay: area under concentration-response curve (viability) (AUC (a.u.)); higher = less active; settings: 48 h
# Method in brief: as §2
# [7] = tested on: CU-ACC2; assay: as above; settings: 48 h
# Method in brief: as §2
# [8] = tested on: NCI-H295R; assay: as above; settings: 48 h
# Method in brief: as §2
SMILES,ExcessHSA synergy score with TAK-243 [1],ExcessHSA synergy score with TAK-243 [2],also measured
Nc1nc(NC2CC2)cc(-c2cccc(Cl)c2Cl)n1 [TH588],-251,-172,–
O=C(O)C1(C(=O)O)CCC1.[NH2-].[NH2-].[Pt+2] [Carboplatin],-188,-21.5,–
COc1cc([C@@H](CC(=O)O)c2ccc(C)c(CN3C[C@@H](C)Oc4ccccc4S3(=O)=O)c2)cc2nnn(C)c12 [KI-696],533,351,–
O=c1sn(-c2cccc3ccccc23)c(=O)n1Cc1ccccc1 [Tideglusib],-108,-74.2,–
Nc1nc2[nH]cc(CCc3ccc(C(=O)N[C@@H](CCC(=O)O)C(=O)O)cc3)c2c(=O)[nH]1,147,–,–
C[C@@H]1OCC2(CCN(c3cnc(Sc4ccnc(N)c4Cl)c(N)n3)CC2)[C@@H]1N [TNO-155],176,322,–
CN1C(=O)[C@@H](NC(=O)c2n[nH]c(Cc3ccccc3)n2)COc2ccccc21,359,714,–
CC(C)[C@@H](CS(=O)(=O)C(C)C)N1C(=O)[C@@](C)(CC(=O)O)C[C@H](c2cccc(Cl)c2)[C@H]1c1ccc(Cl)cc1 [AMG 232],-130,236,–
CCS(=O)(=O)c1cc2cc(C[C@](O)(CC(C)(C)c3ccc(F)cc3C(N)=O)C(F)(F)F)[nH]c2cn1,653,885,–
Nc1nc2[nH]cc(CCc3ccc(C(=O)N[C@@H](CCC(=O)O)C(=O)O)cc3)c2c(=O)[nH]1 [Pemetrexed],–,397,–
COC(=O)[C@]12CCC(C)(C)C[C@H]1[C@H]1C(=O)C=C3[C@@]4(C)C=C(C#N)C(=O)C(C)(C)[C@@H]4CC[C@@]3(C)[C@]1(C)CC2 [CDDO-Me],94.3,271,–
C[C@@H]1C[C@H]2[C@@H]3CCC4=CC(=O)C=C[C@]4(C)[C@@]3(F)[C@@H](O)C[C@]2(C)[C@@]1(O)C(=O)CO [Dexamethasone],420,743,–
NC(=O)c1c(NC(=O)COCc2cc(-c3cccs3)on2)sc2c1CCCC2,37.9,122,–
C[C@H]1CCN1c1nc(N2C[C@@H]3[C@@H](CC(=O)O)[C@@H]3C2)cc(C(F)(F)F)n1 [Ketohexokinase inhibitor 1],-31.2,49.1,–
CO[C@H]1C[C@@H]2CC[C@@H](C)[C@@](O)(O2)C(=O)C(=O)N2CCCC[C@H]2C(=O)O[C@H]([C@H](C)C[C@@H]2CC[C@@H](OCCO)[C@H](OC)C2)CC(=O)[C@H](C)/C=C(\C)[C@@H](O)[C@@H](OC)C(=O)[C@H](C)C[C@H](C)/C=C/C=C/C=C/1C [Everolimus],-885,-1040,–
CNc1nc(NC2CCN(Cc3ccc4c(cc(C#N)n4C[C@H](C)N4CCN(S(C)(=O)=O)CC4)c3C)CC2)c2cc(CC(F)(F)F)sc2n1 [Ziftomenib (KO-539)],-443,-888,–
CS(=O)(=O)c1ccc(C(=O)Nc2ccc(Cl)c(-c3ccccn3)c2)c(Cl)c1 [Vismodegib],-206,-5.69,–
O=C(C[C@@H](C(F)F)n1ccc(F)n1)N1CCC(O)(Cn2cnc3c(cnn3-c3ccc(F)cc3)c2=O)CC1 [FT671],-97.6,431,–
CO[C@H]1C(=O)[C@]2(C)[C@@H](OC)C[C@H]3OC[C@@]3(OC(C)=O)[C@H]2[C@H](OC(=O)c2ccccc2)[C@]2(O)C[C@H](OC(=O)[C@H](O)[C@@H](NC(=O)OC(C)(C)C)c3ccccc3)C(C)=C1C2(C)C [Cabazitaxel],396,-364,–

SMILES,ExcessHSA synergy score with TAK-243 [1],ExcessHSA synergy score with TAK-243 [2],also measured
O=c1[nH]c(CSC2CCC(O)CC2)nc2cc(OCC3CC3)cc(F)c12 (stereo not given),650,1170,–
CCN(c1cc(-c2ccc(CN3CCOCC3)cc2)cc(C(=O)NCc2c(C)cc(C)[nH]c2=O)c1C)C1CCOCC1 [Tazemetostat],–,-203,–
CC[C@@H]1C(=O)N(C)c2cnc(Nc3ccc(C(=O)N[C@H]4CC[C@H](N5CCN(CC6CC6)CC5)CC4)cc3OC)nc2N1C(C)C [Volasertib],-422,-938,–
Cc1cc(Oc2ccc3nc(COc4ccc(CC5SC(=O)NC5=O)cc4)n(C)c3c2)cc(C)c1N (stereo not given) [Efatutazone],-278,-69.9,–
CN(C)C/C=C/C(=O)Nc1ccc(C(=O)Nc2cccc(Nc3ncc(Cl)c(-c4c[nH]c5ccccc45)n3)c2)cc1 [THZ1],-55.8,-128,–
CO/C1=C\C(C)=C\[C@@H](C)[C@@H](O)[C@@H](C)C/C(C)=C/C=C/[C@H](OC)[C@@H]([C@@H](C)[C@@H](O)[C@H](C)[C@@]2(O)C[C@@H](O)[C@H](C)[C@@H](C(C)C)O2)OC1=O [Bafilomycin A1],14.5,-139,–
CO[C@H]1/C=C/C[C@H](C)[C@@H](C)S(=O)(=O)NC(=O)c2ccc3c(c2)N(C[C@@H]2CC[C@H]21)C[C@@]1(CCCc2cc(Cl)ccc21)CO3 [AMG-176],-10.7,-202,–
Nc1ncn([C@@H]2O[C@H](CO)[C@@H](O)[C@H]2O)c(=O)n1 [5-Azacitidine],346,–,–
Nc1ncn([C@@H]2O[C@H](CO)[C@@H](O)[C@H]2O)c(=O)n1 [5-Azacytidine],–,360,–
CCN(c1cc(-c2ccc(CN3CCOCC3)cc2)cc(C(=O)NCc2c(C)cc(C)[nH]c2=O)c1C)C1CCOCC1,-215,–,–
COc1ccc([S+](=O)([O-])N(CCO)c2ccccc2CN(C)C/C=C/c2ccc(Cl)cc2)cc1,–,–,AC50 viability [3]: 14.8 µM; AC50 viability [4]: 23.5 µM; AC50 viability [5]: 20.9 µM; area under concentration-response curve [6]: 436; area under concentration-response curve [7]: 539; area under concentration-response curve [8]: 425
C=CC(=O)Nc1cccc(Nc2nc(Nc3ccc(Oc4ccnc(C(=O)NC)c4)cc3)ncc2F)c1,–,–,AC50 viability [3]: 29.5 µM; AC50 viability [4]: 23.5 µM; AC50 viability [5]: 16.6 µM; area under concentration-response curve [6]: 464; area under concentration-response curve [7]: 596; area under concentration-response curve [8]: 467
Fc1ccc(C(OCCN2CCN(CCCc3ccccc3)CC2)c2ccc(F)cc2)cc1,–,–,AC50 viability [3]: 16.6 µM; AC50 viability [4]: 18.6 µM; AC50 viability [5]: 14.8 µM; area under concentration-response curve [6]: 471; area under concentration-response curve [7]: 490; area under concentration-response curve [8]: 423
C[C@@H]1C[C@@H]([C@H](O)CC2CC(=O)NC(=O)C2)C(=O)[C@@H](C)C1,–,–,AC50 viability [3]: 1.05 µM; AC50 viability [4]: 0.59 µM; AC50 viability [5]: 2.95 µM; area under concentration-response curve [6]: 345; area under concentration-response curve [7]: 333; area under concentration-response curve [8]: 405
CNC(=O)CCc1cc(-c2ccc(-c3ccc(C(F)(F)F)cc3)cc2)n(-c2ccc(N3CCNCC3)cc2)n1,–,–,AC50 viability [3]: 4.68 µM; AC50 viability [4]: 7.42 µM; AC50 viability [5]: 8.33 µM; area under concentration-response curve [6]: 432; area under concentration-response curve [7]: 476; area under concentration-response curve [8]: 487
Nc1cc(C(F)(F)F)c(-c2nc(N3CCOCC3)nc(N3CCOCC3)n2)cn1,–,–,AC50 viability [3]: 5.25 µM; AC50 viability [4]: 16.6 µM; AC50 viability [5]: 3.72 µM; area under concentration-response curve [6]: 381; area under concentration-response curve [7]: 413; area under concentration-response curve [8]: 441
COc1cc2c(Nc3ccc(Cl)c(Cl)c3F)ncnc2cc1OC[C@@H]1C[C@@H]2CN(C)C[C@@H]2C1,–,–,AC50 viability [3]: 9.34 µM; AC50 viability [4]: 13.2 µM; AC50 viability [5]: 14.8 µM; area under concentration-response curve [6]: 407; area under concentration-response curve [7]: 449; area under concentration-response curve [8]: 430
O=C(NO)c1cnc(N2C[C@H]3C[C@@H]2CN3c2cc(C(F)(F)F)ccn2)nc1,–,–,AC50 viability [3]: 7.42 µM; AC50 viability [4]: 10.5 µM; AC50 viability [5]: 1.66 µM; area under concentration-response curve [6]: 385; area under concentration-response curve [7]: 538; area under concentration-response curve [8]: 488

# Reference: the supplement of paper PMC10949913
